Results taken from patent US20100268174A1, “COMBINATION OF ALCOHOL LOCK AND GENTIAN VIOLET CATHETER” (priority 2007, published 2010).

Assays:
[1] = type: physicochemical
Description: One of the surprising findings about the temperature effects is that certain classes of polyurethanes are processable below the degradation temperature and other classes are not.
Compounding Conditions for Stable Gentian Violet:
Barrel Temperatures: • Zone 1-5=170° C. • Zone 6=175° C.,
Compounding Temperature for Degraded Gentian Violet:
Compounding was performed with Sigma Aldrich ACS grade gentian violet, lot 016K3691. HPLC analysis was performed by cutting and measuring 1 cm segments of each formulation (n=3) using the method described in Examples II and III.
The chromatograms show the stable gentian violet followed by the degraded gentian violet, at 588 nm, 253 nm, and 280 nm. The degradation peaks from the 217° C. sample are evident as the new peaks at 253 and 280 nm wavelengths. The chromatogram of the low processing temperature was identical to that of the Gentian Violet raw material.

[2] = Temperature effect (196-219 °C) on degradation of gentian violet compounded in Carbothane resin (HPLC); type: physicochemical; conditions: compounded Carbothane resin with 0.5% GV
Description: Gentian violet contents from compounded resin and tube sample were analyzed via HPLC method. HPLC analysis on GV loaded resin or compounded pellets was performed by weighing 0.1-0.3 g, which is roughly equivalent to 10-20 pellets (depending on the weight of the raw material used) of each formulation (n=3) and digesting in THF (5 mL or 7.5 mL) in 50 mL centrifuge tubes. Samples were allowed to sit for 45 minutes, and then vortexed until all of the polymer dissolved. An equal amount of deionized (DI) water was then added (5 or 7.5 mL), and the samples were again vortexed for 5 minutes, and then centrifuged for 10 minutes. A portion of each sample was then added to an HPLC vial and capped prior to HPLC analysis. HPLC analysis was performed on an Agilent 1200 Series LC using an Agilent Eclipse XDB-CN 5μ 4.6×150 mm column with the corresponding guard column. A gradient program was run using two solvent reservoirs: 5 g of gentian violet (Sigma-Aldrich, St. […] Louis, Mo.). 1000 g of Carbothane®-3585A-B20 (Noveon, Cleveland, Ohio) resin was added in to the gentian violet/ethanol solution. The ethanol solvent was evaporated off in a chemical fume hood overnight at ambient conditions. The gentian violet coated pellets were then dried at 50° C. and 30 inches Hg for 24 hrs prior to compounding. […] The melt temperatures from each run are recorded in Table 6. […]

[3] = Temperature effect (high temperatures) on degradation of gentian violet compounded in Carbothane resin (HPLC); type: physicochemical; conditions: drop in extractable GV content
Description: Gentian violet contents from compounded resin and tube sample were analyzed via HPLC method. HPLC analysis on GV loaded resin or compounded pellets was performed by weighing 0.1-0.3 g, which is roughly equivalent to 10-20 pellets (depending on the weight of the raw material used) of each formulation (n=3) and digesting in THF (5 mL or 7.5 mL) in 50 mL centrifuge tubes. Samples were allowed to sit for 45 minutes, and then vortexed until all of the polymer dissolved. An equal amount of deionized (DI) water was then added (5 or 7.5 mL), and the samples were again vortexed for 5 minutes, and then centrifuged for 10 minutes. A portion of each sample was then added to an HPLC vial and capped prior to HPLC analysis. HPLC analysis was performed on an Agilent 1200 Series LC using an Agilent Eclipse XDB-CN 5μ 4.6×150 mm column with the corresponding guard column. A gradient program was run using two solvent reservoirs: The sample preparation for loading GV on resin pellets is similar to EXAMPLE V. Gentian violet was purchased from (Sigma-Aldrich, St. Louis, Mo.) and Carbothane®-3585A-B20 (Noveon, Cleveland, Ohio) was used. The heating profile was varied for each run.

[4] = system: all organisms of interest
Description: Dilutions were prepared in Cationic Adjusted Mueller Hinton Broth (CAMHB). All tests were performed in microtiter plates with a total test volume of 100 μL, including diluted antimicrobial agent and inoculum. Concentrations of antimicrobial agents were prepared at 2× concentration, and 50 μL was added to each well of a microtiter plate, to which 50 μL of inoculum of the test organism was added to give the target test concentration.
Cells were subsequently centrifuged, and resuspended twice in phosphate buffered saline. The population of this bacterial suspension was determined by reading optical density at 670 nm. […] Initial concentrations were verified using the Miles and Misra drop count method. […] Incubation was at 37° C. for 16 to 20 hours.
To determine MBC values, 50 μl was removed from each well showing inhibition of growth (MIC and greater). Solutions from these inhibitory concentrations of antimicrobial agent were diluted in CAMHB to concentrations where they would no longer inhibit the growth of the test organism. Recovery counts were obtained by plating aliquots of the diluted material onto TSA plate containing 5% sheep's blood, and incubating 24 hours at 37° C.

most microorganisms = conditions: Sissons et al. 1996; cited from earlier work

| SMILES | processing temperature at which degradation starts [1] | processing temperature at which extruded gentian violet was found to degrade [1] | processing temperature that does not degrade gentian violet [1] | processing temperature up to which GV content is essentially unchanged [2] | onset of degradation (processing temperature) ([2]; worse at 219° C.) | temperature above which there is significant degradation of the GV [3] | concentration at which the solution will not inhibit microbial growth [4] | subinhibitory concentration ([4]; for all organisms of interest) | ethanol lock concentration cidal towards most commonly encountered infectious pathogens ([4]; suggested by the Table 1 results) | concentration generally considered bactericidal (most microorganisms) | concentration that inhibits the growth of most microorganisms (most microorganisms) |
| --- | --- | --- | --- | --- | --- | --- | --- | --- | --- | --- | --- |
| CN(C)c1ccc(C(=C2C=CC(=[N+](C)C)C=C2)c2ccc(N(C)C)cc2)cc1 [gentian violet] | about 209 °C | 217 °C | under 207 °C | ≤ 206 °C | 209 °C | above 220 °C | – | – | – | – | – |
| CCO [ethanol] | – | – | – | – | – | – | below 7% | 5% | above 25% | ≥ 40% | 10% |
